Where two headings read alike, the source gives them in different places.
What was measured:
[1] = target: Menin protein (Homo sapiens, UniProt O00255, DEL460-519); assay: Menin/MLL fluorescence polarization (FP) assay; assay type: binding; conditions: Menin 2 nM, cRho110-Ahx-MBM1/MBM2 peptide 1 nM
Experimental: Compounds were tested in a biochemical binding assay using Menin protein at 2 nM (N6his-tev-Menin_4i80, PB-20-1459) and the substrate cRho110-Ahx-MBM1/MBM2 peptide (UbiQ, UbiQ-Q20201030; cRh110-Ahx-[…]-QRVPALLLPPG-NH2) at 1 nM.
384 Low volume black plates (Corning #4514) were used. 5 μL/well compound or 3% DMSO was added at 10-fold serial dilutions in DMSO from 10 μM. 5 μL/well cRho110-Ahx-MBM1/MBM2 peptide or binding buffer (50 mM Tris pH 7.5, 50 mM NaCl, 1 mM TCEP, 0.01% BGG, 0.01% Brij-35) was added to all wells. 5 μL/well Menin protein or binding buffer (50 mM Tris pH 7.5, 50 mM NaCl, 1 mM TCEP, 0.01% BGG, 0.01% Brij-35) was added to all wells. Plates were read on an EnVision plate reader (Perkin Elmer) with excitation at 480 nm and emission at 535 nm P+S, and measured every 5 minutes for 180 minutes.
Data were analyzed in Genedata Screener®. IC50 values were determined by plotting % inhibition versus log compound concentration and using a one site dose response model. Raw data signals were normalized using 1% DMSO no Menin as 100% inhibitor control and 1% DMSO with Menin and no inhibitor as 0% inhibitor control.

[2] = test system: HEL cells; assay: Proliferation assay, HEL control cell line (CellTiter-Glo, 7 days); assay type: cell-based, human
Experimental: (§1) The anti-proliferative effect of compounds was tested in human leukaemia cell lines. The cell lines […] and MV4; 11 each harbor an MLL translocation expressing the MLL fusion proteins MLL-AF9 and MLL-AF4, respectively. Each also express the wildtype protein from the second allele. OCI-AML3 cells carrying the NPM1c gene mutation were also tested.
(§2) MOLM-13 and HEL cells were cultured in RPMI 1640 (Gibco) supplemented with 10% FBS (Gibco) and 1% Pen/Strep (Gibco). MV4; 11 cells were cultured in IMDM (Gibco) supplemented with 10% FBS (Gibco) and 1% Pen/Strep (Gibco). OCI-AML3 cells were cultured in MEMa (Gibco) supplemented with 20% FBS (Gibco) and 1% Pen/Strep (Gibco).
(§3) To assess proliferative effects, 125 MOLM-13 cells, 300 MV4; 11 cells, 75 OCI-AML3 cells, and 200 HEL cells were seeded in 40 μL media per well in 384-well ViewPlates (Perkin Elmer, 6007480). Cell seeding numbers were chosen based on growth curves to ensure linear growth throughout the experiments. Test compounds were added at 3.16-fold serial dilutions in DMSO from […] and DMSO content was normalized to 0.1%. Cells were incubated for 7 days at 37° C. and 5% CO2. A day 0 plate was seeded for each cell line and used as a standard control.
(§4) To measure cell viability, CellTiter-Glo 2.0 (Promega, G9242) luminescent growth indicator was used. 10 μL CellTiter-Glo reagent was added per well. Plates were placed on a plate shaker for 2 minutes in the dark and left to incubate off the shaker for another 8 minutes in the dark, for a total of 10 minutes. Plates were read using an EnVision plate reader (Perkin Elmer) using the Luminescence aperture and a measurement time of 0.1 second.
(§5) Data were analyzed in Genedata Screener®. IC50 values were determined by plotting % inhibition versus log compound concentration and using a one site dose response model. Raw data signals were normalized using 0.1% DMSO media only as background control, 0.1% DMSO with cells no compound as 100% viability (maximum signal), and day 0 0.1% DM with cells no compound as 0% viability (minimum signal).

[3] = test system: MOLM-13 cells; assay: Proliferation assay, MOLM-13 (CellTiter-Glo, 7 days); assay type: cell-based, human
Experimental: as §1, §2, §3, §4, §5

[4] = Human liver microsomes (HLMs) intrinsic clearance assay; assay type: in vitro ADME; conditions: human, microsomes; for HLM CLint: 1 µM, pH 7.4
Experimental: Human liver microsomes (HLMs) were obtained from Corning (UltraPool 150 donors) at a concentration of 20 mg/mL protein. HLMs were stored at −80° C. until use and prior to use, thawed in a 37° C. water bath and then stored on wet ice. DMSO and NADPH were sourced from Solarbio S&T Co Ltd.
2 mL of 10 mM DMSO stock solutions of test compound were added to 198 mL acetonitrile to produce […] concentration. 1325 mL of 20 mg/mL HLM were added to 22260 mL of phosphate buffer to produce the HLM mixture. An 8.334 mg/mL solution of NADPH was prepared in 100 mmol/L pH 7.4 phosphate buffer.
222.5 mL of the HLM mixture and 25 mL of the 10 mM NADPH were added into the incubation plates (1 mL 96 well deep well plate from Thermo). The mixture was vortexed for 10 seconds at 1000 rpm. The incubation plate was pre-warmed in a water bath at 37° C. for 8 minutes. 2.5 mL of the […] stocks of test compound was added to initiate the reaction. The mix was vortexed for 12 seconds at 1000 rpm and incubated at 37° C. The incubation mixture (250 mL) contained 1 mg/mL HLM, 1 mmol/L NADPH and […].
The reaction was quenched by transferring 20 mL of the incubation mixture at 0.5, 5, 10, 15, 20 and 30 minutes into the quenching plate containing 100 mL of cold stop solution (acetonitrile containing internal standards). The plate was vortexed at 800 rpm for 2 minutes.
The quenching plates were centrifuged for 20 minutes at 4000 rpm and 4° C. 40 mL of the supernatant was transferred into a 96-well analysis plate containing 160 mL of water. The analysis plate was shaken at 1000 rpm for 2 minutes and the samples analysed by LC-MS/MS.
Peak areas were determined from extracted ion chromatograms. Percent parent remaining was calculated from peak area of test compound. The slope value, k, was determined by linear regression of the natural logarithm of percent parent remaining versus incubation time. The in vitro half-life (t1/2) was determined from the slope value by the equation: […]
Conversion of the in vitro half-life (min) into in vitro CLint (mL/min/mg proteins) was completed using the equation: […]

[5] = target: hERG (Homo sapiens (Human), UniProt Q12809); assay: hERG assay 1 (standard), SyncroPatch 384PE; assay type: cell-based; conditions: CHO cells, room temperature, up to 40 uM
hERG, sequence (Q12809 whole entry): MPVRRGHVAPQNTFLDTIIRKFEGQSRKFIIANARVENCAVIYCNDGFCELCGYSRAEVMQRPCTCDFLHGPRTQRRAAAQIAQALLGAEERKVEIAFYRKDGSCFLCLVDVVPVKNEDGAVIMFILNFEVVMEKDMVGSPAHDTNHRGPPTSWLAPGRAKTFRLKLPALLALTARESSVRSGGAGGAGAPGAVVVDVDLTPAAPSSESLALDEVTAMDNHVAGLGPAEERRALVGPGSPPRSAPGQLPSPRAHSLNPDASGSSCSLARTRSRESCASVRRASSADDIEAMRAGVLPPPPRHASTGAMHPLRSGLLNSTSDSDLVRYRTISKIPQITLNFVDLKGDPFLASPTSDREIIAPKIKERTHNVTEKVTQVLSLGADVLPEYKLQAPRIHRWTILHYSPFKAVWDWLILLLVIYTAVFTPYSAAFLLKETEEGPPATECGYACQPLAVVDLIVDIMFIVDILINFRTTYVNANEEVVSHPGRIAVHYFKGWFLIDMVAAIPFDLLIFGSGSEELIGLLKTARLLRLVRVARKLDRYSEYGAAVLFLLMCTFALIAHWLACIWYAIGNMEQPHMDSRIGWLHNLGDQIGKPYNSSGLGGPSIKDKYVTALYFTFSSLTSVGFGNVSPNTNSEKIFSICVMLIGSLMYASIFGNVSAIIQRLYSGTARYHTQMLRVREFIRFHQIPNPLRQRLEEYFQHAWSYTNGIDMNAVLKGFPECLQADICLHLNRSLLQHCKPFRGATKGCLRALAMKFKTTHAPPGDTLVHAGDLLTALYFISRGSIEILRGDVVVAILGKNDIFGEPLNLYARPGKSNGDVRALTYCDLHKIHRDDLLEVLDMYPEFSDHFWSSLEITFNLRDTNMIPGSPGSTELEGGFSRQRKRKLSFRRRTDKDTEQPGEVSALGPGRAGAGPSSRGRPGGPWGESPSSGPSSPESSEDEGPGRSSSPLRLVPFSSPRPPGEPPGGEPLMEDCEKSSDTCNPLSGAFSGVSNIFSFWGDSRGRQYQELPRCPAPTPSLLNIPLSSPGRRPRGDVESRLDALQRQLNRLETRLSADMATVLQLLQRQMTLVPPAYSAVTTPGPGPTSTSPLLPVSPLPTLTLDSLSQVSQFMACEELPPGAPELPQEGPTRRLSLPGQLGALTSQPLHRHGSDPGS
Experimental: Experiments were performed on the SyncroPatch 384PE (Nanion Technologies) high throughput patch clamp platform at room temperature and used medium resistance chips with 4 patch holes per site. hERG-expressing Chinese hamster ovary K1 (CHO) cell line was used in assay-ready format and kept in liquid nitrogen until use. 2 vials of cells (10×10^6 cells per vial) were thawed and added to 20 ml Hepes-buffered saline solution (HBSS). HBSS comprised 140 mM NaCl, 4 mM KCl, 10 mM HEPES and 5 mM Glucose (pH 7.4). The internal patch clamp solution was KF 120 mM, KCl 20 mM, HEPES 10 mM, EGTA 10 mM, and 25 μM Escin (pH 7.2). After the initial sealing process was complete, a seal enhancer solution comprising HBSS supplemented with 10 mM CaCl2 and 1 mM MgCl2 was applied to cells. The external solution was then exchanged (4 times) for external patch clamp solution comprising NaCl 80 mM, KCl 4 mM, HEPES 10 mM, CaCl2 2 mM, MgCl2 1 mM, glucose 5 mM, and NMDG 60 mM (pH7.4). All compounds were dispensed from initial 10 mM DMSO stocks. An industry standard +60/−40 mV voltage protocol was applied every 15 seconds. Compounds were tested in a 6-point cumulative assay (final DMSO concentration 0.33%), with a concentration range of 139 nM to 40 uM. Data were analyzed in Genedata Screener®. IC50 values were determined by plotting % inhibition versus log compound concentration and using a one site dose response model. Only wells that passed acceptance criteria for this platform were used in this analysis (30 MegaOhm seal resistance, Z prime >0.4 and current size >0.2 nA).

Menin protein, sequence (O00255 with tags, fused parts or gaps DEL460-519): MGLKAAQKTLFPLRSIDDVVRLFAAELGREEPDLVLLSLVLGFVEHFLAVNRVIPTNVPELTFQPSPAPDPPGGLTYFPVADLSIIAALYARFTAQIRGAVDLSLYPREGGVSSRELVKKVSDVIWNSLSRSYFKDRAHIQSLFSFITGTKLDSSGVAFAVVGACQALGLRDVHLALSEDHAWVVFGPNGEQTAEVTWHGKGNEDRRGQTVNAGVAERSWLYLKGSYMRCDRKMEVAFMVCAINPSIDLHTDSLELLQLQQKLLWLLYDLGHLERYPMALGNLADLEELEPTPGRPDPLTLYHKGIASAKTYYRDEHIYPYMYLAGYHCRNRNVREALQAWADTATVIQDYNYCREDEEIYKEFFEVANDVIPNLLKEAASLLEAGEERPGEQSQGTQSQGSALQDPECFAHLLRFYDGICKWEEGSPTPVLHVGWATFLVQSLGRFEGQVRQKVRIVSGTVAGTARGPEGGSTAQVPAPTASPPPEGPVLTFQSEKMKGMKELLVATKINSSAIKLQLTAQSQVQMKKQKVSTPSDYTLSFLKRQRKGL

| Structure (SMILES) | IC50 [1] [µM] | IC50 [2] [µM] | IC50 [3] [µM] | HLM CLint [4] [µL/min/mg] | IC50 [5] [µM] | IC50 ([2]; Homo sapiens, HEL, 168 h) [µM] | IC50 ([3]; Homo sapiens, MOLM-13, 168 h) [µM] | microsomal CLint at 1 µM ([4]; pH 7.4, HLM CLint) [µL/min/mg] |
| --- | --- | --- | --- | --- | --- | --- | --- | --- |
| Cc1c(C(=O)[C@@H]2CCN(C(=O)[C@H]3NC[C@@H]4C[C@@H]43)[C@@H](C)C2)c2ccncc2n1-c1ccc(F)cc1C(=O)N(CC(F)(F)F)C(C)C (single isomer, unassigned) [Example 53-2, 2-(3-((2R*,4S*)-1-((1S,2S,5R)-3-Azabicyclo[3.1.0]hexane-2-carbonyl)-2-methylpiperidine-4-carbonyl)-2-methyl-1H-pyrrolo[2,3-c]pyridin-1-yl)-5-fluoro-N-isopropyl-N-(2,2,2-trifluoroethyl)benzamide] | 7.8 | > 10 | 1.3 | 77 |  |  |  |  |
| Cc1c(C(=O)C2CCN(C(=O)[C@H]3NC[C@@H]4C[C@@H]43)CC2)c2ccncc2n1-c1ccc(F)cc1C(=O)N(C(C)C)[C@H](C)C(F)(F)F (single isomer, unassigned) [Example 57-2] | > 10 | > 10 | > 10 | 95 | > 40 |  |  |  |
| [2H]C([2H])([2H])C([2H])(N(C(=O)c1cc(F)ccc1-n1c(C)c(C(=O)C2CCN(C(=O)[C@@H]3CCC(C)(C)N3)CC2)c2ccncc21)C([2H])(C([2H])([2H])[2H])C([2H])([2H])[2H])C([2H])([2H])[2H] [Example 59, (S)-2-(3-(1-(5,5-Dimethylpyrrolidine-2-carbonyl)piperidine-4-carbonyl)-2-methyl-1H-pyrrolo[2,3-c]pyridin-1-yl)-5-fluoro-N,N-bis(propan-2-yl-d7)benzamide] | 0.102 |  |  |  | > 40 | > 10 | 0.094 | 59 |

Source: patent US20240335431A1, “1-H-PYRROLO[2,3-c]PYRIDINE COMPOUNDS” (Acerta Pharma B.V., priority 2023, published 2024)
